Assay results from ChEMBL document CHEMBL1201862, “PubChem BioAssay data set” (2004).
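Assay format: 96-well plates, 48-hour exposure. Abbreviation: GI50, concentration required for 50% inhibition of growth.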 Active and inactive are the calls of the source. Cut-off read from the data, not from the text of the source: active = GI50 up to about 1.1 µM and inactive = higher.

How the values were obtained:
Assay in all cases: NCI-60 cell line screen, 48 h
786-0 = tested on: 786-0
ACHN = tested on: ACHN
HCT-116 = tested on: HCT-116
IGROV-1 = tested on: IGROV-1
K562 = tested on: K562
LOX IMVI = tested on: LOX IMVI
MCF7 = tested on: MCF7
NCI-H23 = tested on: NCI-H23
NCI/ADR-RES = tested on: NCI/ADR-RES
OVCAR-3 = tested on: OVCAR-3
RPMI-8226 = tested on: RPMI-8226
SF-295 = tested on: SF-295
SF-539 = tested on: SF-539
SK-MEL-28 = tested on: SK-MEL-28
SK-MEL-2 = tested on: SK-MEL-2
SN12C = tested on: SN12C
TK-10 = tested on: TK-10
UACC-257 = tested on: UACC-257
UACC-62 = tested on: UACC-62
SNB-19 = tested on: SNB-19

| SMILES | GI50 (786-0) | GI50 (ACHN) | GI50 (HCT-116) | GI50 (IGROV-1) | GI50 (K562) | GI50 (LOX IMVI) | GI50 (MCF7) | GI50 (NCI-H23) | GI50 (NCI/ADR-RES) | GI50 (OVCAR-3) | GI50 (RPMI-8226) | GI50 (SF-295) | GI50 (SF-539) | GI50 (SK-MEL-28) | GI50 (SK-MEL-2) | GI50 (SN12C) | GI50 (TK-10) | GI50 (UACC-257) | GI50 (UACC-62) | GI50 (SNB-19) |
| --- | --- | --- | --- | --- | --- | --- | --- | --- | --- | --- | --- | --- | --- | --- | --- | --- | --- | --- | --- | --- |
| CCC(CC)(CO)CNc1cc(Cl)nc(N)n1 | > 100 µM (inactive) | > 100 µM (inactive) | > 100 µM (inactive) | > 100 µM (inactive) | > 100 µM (inactive) | > 100 µM (inactive) | > 100 µM (inactive) | > 100 µM (inactive) | > 100 µM (inactive) | > 100 µM (inactive) | 92.9 µM (inactive) | > 100 µM (inactive) | > 100 µM (inactive) | > 100 µM (inactive) | > 100 µM (inactive) | > 100 µM (inactive) | > 100 µM (inactive) | > 100 µM (inactive) | > 100 µM (inactive) |  |
| C/C1=C/C[C@@H](/C(C)=C/c2csc(C)n2)OC(=O)C[C@H](O)C(C)(C)C(=O)[C@H](C)[C@@H](O)[C@@H](C)CCC1 [EPOTHILONE D] | < 0.0001 µM (active) | < 0.0001 µM (active) | < 0.0001 µM (active) | < 0.0001 µM (active) | < 0.0001 µM (active) | < 0.0001 µM (active) | < 0.0001 µM (active) | < 0.0001 µM (active) | < 0.0001 µM (active) | < 0.0001 µM (active) | < 0.0001 µM (active) | < 0.0001 µM (active) | < 0.0001 µM (active) |  | < 0.0001 µM (active) | < 0.0001 µM (active) | 0.000192 µM (active) |  | < 0.0001 µM (active) | < 0.0001 µM (active) |
| COc1c2ccsc2c(OC)c2ccsc12 | > 100 µM (inactive) | > 100 µM (inactive) | > 100 µM (inactive) | > 100 µM (inactive) | > 100 µM (inactive) | > 100 µM (inactive) | > 100 µM (inactive) | > 100 µM (inactive) | > 100 µM (inactive) | > 100 µM (inactive) |  | 61.8 µM (inactive) | 26.1 µM (inactive) | > 100 µM (inactive) | > 100 µM (inactive) | > 100 µM (inactive) | > 100 µM (inactive) | > 100 µM (inactive) | > 100 µM (inactive) | > 100 µM (inactive) |
| CCN(CC)CCC(=O)O[C@H]1CC[C@H](CC(C)[C@H]2CC(=O)C(C)C=C(C)[C@H](OC(=O)CCN(CC)CC)C(OC)C(=O)[C@@H](C)CC(C)/C=C/C=C/C=C(C)C(OC)CC3CC[C@H](C)[C@](O)(O3)C(=O)C(=O)N3CCCCC3C(=O)O2)CC1OC (stereo partly drawn) | 0.0197 µM (active) | 0.348 µM (active) | 0.865 µM (active) |  |  | 0.0222 µM (active) | < 0.026 µM (active) | 0.161 µM (active) | 0.697 µM (active) | 0.202 µM (active) |  | 0.0218 µM (active) | 0.0185 µM (active) | 0.0284 µM (active) | 0.0214 µM (active) | 0.0847 µM (active) | 0.627 µM (active) | 1.32 µM (inactive) | 0.0448 µM (active) | 0.0571 µM (active) |
| C[C@@H]1OC2(O)[C@@H]3CCCN3C(=O)N(Cc3ccccc3)N2C1=O (stereo partly drawn) | > 100 µM (inactive) | > 100 µM (inactive) | > 100 µM (inactive) | > 100 µM (inactive) |  | > 100 µM (inactive) | > 100 µM (inactive) | > 100 µM (inactive) | > 100 µM (inactive) | > 100 µM (inactive) |  | > 100 µM (inactive) | > 100 µM (inactive) | > 100 µM (inactive) | > 100 µM (inactive) | > 100 µM (inactive) | > 100 µM (inactive) | > 100 µM (inactive) | > 100 µM (inactive) | > 100 µM (inactive) |
| CN1CCN(Cc2ccc(C(=S)Nc3ccccc3)s2)CC1 | 31.9 µM (inactive) | 92 µM (inactive) | 42.5 µM (inactive) | 10.4 µM (inactive) | 25.9 µM (inactive) | 15.7 µM (inactive) | 41.9 µM (inactive) | 18.5 µM (inactive) | 32.9 µM (inactive) | > 100 µM (inactive) | 28.6 µM (inactive) | 32.3 µM (inactive) | 82.4 µM (inactive) | 15.5 µM (inactive) | 41.8 µM (inactive) |  |  | 33.5 µM (inactive) | 20.2 µM (inactive) | > 100 µM (inactive) |
| Cc1ccc(S(=O)(=O)NC(=O)N[C@@H](Cc2c[nH]cn2)C(=O)O)cc1 | > 100 µM (inactive) | > 100 µM (inactive) | > 100 µM (inactive) | > 100 µM (inactive) | > 100 µM (inactive) | > 100 µM (inactive) | > 100 µM (inactive) | > 100 µM (inactive) | > 100 µM (inactive) |  | 37.3 µM (inactive) | > 100 µM (inactive) | > 100 µM (inactive) | > 100 µM (inactive) | > 100 µM (inactive) | > 100 µM (inactive) | > 100 µM (inactive) | > 100 µM (inactive) | > 100 µM (inactive) | > 100 µM (inactive) |
